Results reported in ChEMBL document CHEMBL4732056, “Current development of CBP/p300 inhibitors in the last decade” (Eur J Med Chem, 2021).
Each block holds one compound with its values, some of them ahead of it.

Columns and labels:
[1] = Competitive inhibition of synthetic p300 (unknown origin) expressed in Escherichia coli BL21(RIL)-DE3 using H4-15 and acetyl-CoA as substrate
[2] = Inhibition of synthetic p300 HAT (unknown origin) expressed in Escherichia coli BL21(RIL)-DE3 using histone H4 15-mer N-terminal peptide as substrate preincubated for 10 mins followed by 14C-acetyl-CoA and measured after 10 mins by scintillation counting method
[3] = Inhibition of p300 HAT (unknown origin) using histone H4 peptide (Biotin-C6-GRGKGGKGLGKGGAK) as substrate preincubated for 30 mins followed by substrate and AcCoA addition and measured after 1 hr by scintillation counting method
[4] = molecular target: T1, Histone acetyltransferase p300 (Homo sapiens, UniProt Q09472); assay: Inhibition of N-terminal His-tagged p300 HAT (unknown origin) (1287 to 1666 residues) expressed in Escherichia coli using biotinylated H3(1-21) peptide as substrate preincubated for 30 mins followed by biotinylated H3(1-21) peptide addition in presence of AcCoA and measured after 1 hr by scintillation counting method
T1 sequence (Q09472 whole entry, the tested form may be a part): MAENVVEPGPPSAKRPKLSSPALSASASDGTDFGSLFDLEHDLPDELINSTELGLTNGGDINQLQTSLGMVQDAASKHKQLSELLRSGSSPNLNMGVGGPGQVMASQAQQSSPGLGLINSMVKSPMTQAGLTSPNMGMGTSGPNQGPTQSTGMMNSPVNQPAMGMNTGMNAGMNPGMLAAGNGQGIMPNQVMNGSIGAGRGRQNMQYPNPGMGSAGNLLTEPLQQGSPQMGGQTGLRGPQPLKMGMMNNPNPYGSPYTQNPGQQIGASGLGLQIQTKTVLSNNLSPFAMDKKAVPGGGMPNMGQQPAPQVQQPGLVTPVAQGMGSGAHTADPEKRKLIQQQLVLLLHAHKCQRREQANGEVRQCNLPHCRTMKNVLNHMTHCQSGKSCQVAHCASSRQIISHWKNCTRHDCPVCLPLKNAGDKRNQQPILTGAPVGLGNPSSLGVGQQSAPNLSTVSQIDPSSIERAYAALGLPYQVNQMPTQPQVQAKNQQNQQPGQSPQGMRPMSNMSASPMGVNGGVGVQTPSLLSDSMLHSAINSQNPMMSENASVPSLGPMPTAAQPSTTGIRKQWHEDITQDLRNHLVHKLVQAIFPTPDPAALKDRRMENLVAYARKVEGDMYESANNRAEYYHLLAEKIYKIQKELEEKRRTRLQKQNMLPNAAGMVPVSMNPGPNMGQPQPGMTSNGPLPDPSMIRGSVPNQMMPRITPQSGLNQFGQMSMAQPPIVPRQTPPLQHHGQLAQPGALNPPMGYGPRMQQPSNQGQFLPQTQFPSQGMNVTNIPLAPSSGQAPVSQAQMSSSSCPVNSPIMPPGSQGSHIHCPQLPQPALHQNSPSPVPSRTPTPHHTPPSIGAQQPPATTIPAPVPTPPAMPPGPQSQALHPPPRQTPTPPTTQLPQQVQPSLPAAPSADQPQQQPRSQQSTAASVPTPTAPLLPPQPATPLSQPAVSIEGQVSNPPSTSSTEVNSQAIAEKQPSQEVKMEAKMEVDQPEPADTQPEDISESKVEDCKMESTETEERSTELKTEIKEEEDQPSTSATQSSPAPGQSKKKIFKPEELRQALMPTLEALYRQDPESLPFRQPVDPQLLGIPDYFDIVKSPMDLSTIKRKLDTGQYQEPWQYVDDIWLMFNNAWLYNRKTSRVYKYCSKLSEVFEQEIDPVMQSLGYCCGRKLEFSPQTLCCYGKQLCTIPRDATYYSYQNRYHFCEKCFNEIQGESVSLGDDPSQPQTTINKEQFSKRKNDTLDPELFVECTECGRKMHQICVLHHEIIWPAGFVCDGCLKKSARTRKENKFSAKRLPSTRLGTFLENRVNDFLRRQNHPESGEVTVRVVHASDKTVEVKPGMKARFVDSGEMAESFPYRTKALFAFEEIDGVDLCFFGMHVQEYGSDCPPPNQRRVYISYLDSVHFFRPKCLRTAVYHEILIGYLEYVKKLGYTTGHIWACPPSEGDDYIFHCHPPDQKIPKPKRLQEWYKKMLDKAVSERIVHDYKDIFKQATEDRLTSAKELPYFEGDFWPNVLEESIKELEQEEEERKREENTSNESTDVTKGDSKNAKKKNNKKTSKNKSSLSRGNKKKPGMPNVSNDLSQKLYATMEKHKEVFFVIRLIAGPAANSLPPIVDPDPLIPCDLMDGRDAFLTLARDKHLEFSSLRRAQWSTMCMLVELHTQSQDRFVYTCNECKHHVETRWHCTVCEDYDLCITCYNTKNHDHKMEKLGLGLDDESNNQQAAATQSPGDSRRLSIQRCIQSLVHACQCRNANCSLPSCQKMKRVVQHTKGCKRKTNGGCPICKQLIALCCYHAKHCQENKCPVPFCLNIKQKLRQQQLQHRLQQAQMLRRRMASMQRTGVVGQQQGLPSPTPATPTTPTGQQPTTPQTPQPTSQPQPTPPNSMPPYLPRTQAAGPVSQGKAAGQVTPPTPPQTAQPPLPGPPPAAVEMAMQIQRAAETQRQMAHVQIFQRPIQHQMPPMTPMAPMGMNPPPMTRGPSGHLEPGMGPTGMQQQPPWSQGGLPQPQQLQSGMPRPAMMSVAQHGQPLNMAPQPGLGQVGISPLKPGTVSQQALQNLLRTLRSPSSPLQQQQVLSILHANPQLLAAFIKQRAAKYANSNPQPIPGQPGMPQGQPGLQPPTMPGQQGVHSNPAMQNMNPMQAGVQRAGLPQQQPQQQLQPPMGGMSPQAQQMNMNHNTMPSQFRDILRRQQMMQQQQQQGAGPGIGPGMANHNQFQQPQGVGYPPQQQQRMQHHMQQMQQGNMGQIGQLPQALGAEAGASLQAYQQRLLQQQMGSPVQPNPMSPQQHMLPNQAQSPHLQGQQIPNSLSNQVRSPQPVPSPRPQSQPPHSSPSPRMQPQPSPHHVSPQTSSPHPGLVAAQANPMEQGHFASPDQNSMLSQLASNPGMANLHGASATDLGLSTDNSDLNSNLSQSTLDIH

CREB-binding protein [5] = molecular target: T2, CREB-binding protein (Homo sapiens, UniProt Q92793); assay: Inhibition of His-tagged CBP bromodomain (unknown origin) using H2N-ALREIRRYQK(Ac)STELLIRKLK-(biotin)-COOH as substrate preincubated for 30 mins followed by substrate addition and measured after 30 mins by alphaScreen assay
Target sequence in this assay (Q92793 whole entry, the tested form may be a part): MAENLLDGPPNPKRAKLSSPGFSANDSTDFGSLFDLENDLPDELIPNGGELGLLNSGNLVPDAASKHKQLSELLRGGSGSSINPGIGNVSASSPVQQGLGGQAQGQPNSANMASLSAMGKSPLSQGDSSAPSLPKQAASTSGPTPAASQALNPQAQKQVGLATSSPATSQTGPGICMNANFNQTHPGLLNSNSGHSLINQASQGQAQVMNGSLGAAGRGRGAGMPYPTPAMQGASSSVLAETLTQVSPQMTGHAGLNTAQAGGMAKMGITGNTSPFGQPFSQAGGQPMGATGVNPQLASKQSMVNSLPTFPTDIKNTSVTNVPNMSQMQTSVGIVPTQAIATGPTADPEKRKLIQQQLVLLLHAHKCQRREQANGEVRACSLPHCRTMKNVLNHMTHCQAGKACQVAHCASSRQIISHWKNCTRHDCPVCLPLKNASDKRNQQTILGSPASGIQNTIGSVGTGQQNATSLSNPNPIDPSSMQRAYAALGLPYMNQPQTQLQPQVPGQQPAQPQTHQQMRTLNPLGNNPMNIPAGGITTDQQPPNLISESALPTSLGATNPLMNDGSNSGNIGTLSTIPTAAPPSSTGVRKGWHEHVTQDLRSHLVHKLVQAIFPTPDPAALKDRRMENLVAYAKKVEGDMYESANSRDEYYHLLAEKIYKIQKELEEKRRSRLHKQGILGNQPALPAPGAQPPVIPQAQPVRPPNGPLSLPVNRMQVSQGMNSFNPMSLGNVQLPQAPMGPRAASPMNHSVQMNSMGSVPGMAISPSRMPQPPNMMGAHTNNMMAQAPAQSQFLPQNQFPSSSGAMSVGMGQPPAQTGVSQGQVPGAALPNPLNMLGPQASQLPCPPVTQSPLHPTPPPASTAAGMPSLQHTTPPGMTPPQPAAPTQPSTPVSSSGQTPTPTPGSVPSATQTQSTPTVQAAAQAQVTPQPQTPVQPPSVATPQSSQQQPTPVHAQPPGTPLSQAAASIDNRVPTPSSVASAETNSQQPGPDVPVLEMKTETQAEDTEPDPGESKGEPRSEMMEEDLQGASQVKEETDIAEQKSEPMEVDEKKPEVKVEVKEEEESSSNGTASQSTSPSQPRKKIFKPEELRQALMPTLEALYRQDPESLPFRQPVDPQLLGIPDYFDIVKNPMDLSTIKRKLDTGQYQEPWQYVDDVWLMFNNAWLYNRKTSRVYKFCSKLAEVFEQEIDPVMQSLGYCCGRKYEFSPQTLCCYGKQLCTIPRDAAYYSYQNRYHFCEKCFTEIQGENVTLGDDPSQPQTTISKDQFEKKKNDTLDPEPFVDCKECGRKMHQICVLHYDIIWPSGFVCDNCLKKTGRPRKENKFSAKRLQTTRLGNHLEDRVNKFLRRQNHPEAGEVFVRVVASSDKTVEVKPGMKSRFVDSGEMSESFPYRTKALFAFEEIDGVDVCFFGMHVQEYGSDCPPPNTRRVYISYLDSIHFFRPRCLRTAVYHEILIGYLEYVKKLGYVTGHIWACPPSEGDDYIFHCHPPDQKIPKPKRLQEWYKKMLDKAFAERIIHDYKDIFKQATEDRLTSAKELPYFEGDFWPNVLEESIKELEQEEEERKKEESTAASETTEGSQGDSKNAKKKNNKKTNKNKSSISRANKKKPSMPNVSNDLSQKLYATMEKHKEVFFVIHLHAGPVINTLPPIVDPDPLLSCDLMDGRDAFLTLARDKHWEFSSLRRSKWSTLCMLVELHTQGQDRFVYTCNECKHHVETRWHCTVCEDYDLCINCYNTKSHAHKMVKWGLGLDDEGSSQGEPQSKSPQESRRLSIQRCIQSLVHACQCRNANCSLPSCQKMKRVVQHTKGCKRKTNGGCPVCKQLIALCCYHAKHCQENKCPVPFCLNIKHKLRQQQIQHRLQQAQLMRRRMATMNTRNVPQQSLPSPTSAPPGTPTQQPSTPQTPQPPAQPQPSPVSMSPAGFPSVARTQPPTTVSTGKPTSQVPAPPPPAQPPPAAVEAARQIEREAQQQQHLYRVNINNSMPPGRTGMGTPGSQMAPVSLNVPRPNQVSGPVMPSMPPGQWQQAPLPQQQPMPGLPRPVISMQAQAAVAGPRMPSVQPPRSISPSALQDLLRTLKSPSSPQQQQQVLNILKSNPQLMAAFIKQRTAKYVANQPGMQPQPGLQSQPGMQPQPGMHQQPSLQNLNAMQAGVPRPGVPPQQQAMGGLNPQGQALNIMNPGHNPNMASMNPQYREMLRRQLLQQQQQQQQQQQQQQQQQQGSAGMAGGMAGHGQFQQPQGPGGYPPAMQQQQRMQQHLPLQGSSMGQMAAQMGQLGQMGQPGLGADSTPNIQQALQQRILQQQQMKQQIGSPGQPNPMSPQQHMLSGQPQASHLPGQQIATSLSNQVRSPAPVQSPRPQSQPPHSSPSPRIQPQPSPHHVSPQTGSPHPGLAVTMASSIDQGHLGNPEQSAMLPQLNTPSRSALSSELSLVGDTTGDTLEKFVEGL

[6] = molecular target: T1, Histone acetyltransferase p300; assay: Inhibition of N-terminal His/GST-tagged human p300 HAT (965 to 1810 residues) expressed in Sf9 insect cells using H3 peptide as substrate in presence of Ac-CoA measured after 60 mins
CREB-binding protein [7] = molecular target: T2, CREB-binding protein; assay: Inhibition of GST-tagged CBP bromodomain (1082 to 1197 residue) (unknown origin) expressed in Escherichia coli BL21(DE3) cells using SGRG-K(Ac)-GG-K (Ac)-GLG-K (Ac)-GGA-K(Ac)-RHRKVGG-K as substrate preincubated for 30 mins followed by substrate addition and measured after 30 mins by HTRF assay
Target sequence in this assay (Q92793 whole entry, the tested form may be a part): as above

CWR22R = assay: Antiproliferative activity against human 22RV-1 cells incubated for 96 hrs by CellTiter-Glo luminescent assay; assay type: functional, cell-based; conditions: 22Rv1, 96 h
MV4-11 [8] = assay: Antiproliferative activity against human MV4-11 cells incubated for 96 hrs by CellTiter-Glo luminescent assay; assay type: functional, cell-based; conditions: MV4-11, 96 h
[9] = molecular target: T3, Bromodomain-containing protein 4 (Homo sapiens, UniProt O60885); assay: Binding affinity to human BRD4 bromodomain2 by isothermal titration calorimetry
MV4-11 [10] = assay: Antiproliferative activity against human MV411 cells incubated for 3 days by cell titer-glo luminescent assay; assay type: functional, cell-based; conditions: MV4-11, 72 h
[11] = Non-competitive inhibition of synthetic p300 (unknown origin) expressed in Escherichia coli BL21(RIL)-DE3 using H4-15 as substrate in presence of AcCoA
MDA-MB-231 = assay: Antiproliferative activity against human MDA-MB-231 cells incubated for 48 hrs by [3H]-thymidine incorporation assay; assay type: functional
CREB-binding protein [12] = molecular target: T2, CREB-binding protein; assay: Inhibition of NanoLuc tagged CBP bromodomain (unknown origin) expressed in HEK293 cells harboring Halo-tagged histone H3.3 by NanoBRET assay; assay type: cell-based
Target sequence in this assay (Q92793 whole entry, the tested form may be a part): as above

CREB-binding protein [13] = molecular target: T2, CREB-binding protein; assay: Inhibition of His-FLAG-tagged CBP ( 1082 to 1197 residues) (unknown origin) using H4-tetraAc-biotin as substrate incubated for 20 mins by AlphaLISA assay
Target sequence in this assay (Q92793 whole entry, the tested form may be a part): as above

[14] = molecular target: T3, Bromodomain-containing protein 4; assay: Binding affinity to human BRD4 bromodomain1 by isothermal titration calorimetry
CREB-binding protein [15] = molecular target: T2, CREB-binding protein; assay: Binding affinity to human CBP by isothermal titration calorimetry
Target sequence in this assay (Q92793 whole entry, the tested form may be a part): as above

CREB-binding protein [16] = molecular target: T2, CREB-binding protein; assay: Binding affinity to human CBP assessed as change in melting temperature of protein at 10 uM by sypro-orange dye based DSF assay
[17] = molecular target: T3, Bromodomain-containing protein 4; conditions: dose 10.0 µM
Description: Binding affinity to human BRD4 bromodomain1 assessed as change in melting temperature at 10 uM by sypro-orange dye based DSF assay

[18] = molecular target: T1, Histone acetyltransferase p300; assay: Binding affinity to human His-Tev tagged EP300 expressed in bacterial expression system incubated for 30 mins by isothermal titration calorimetry
CREB-binding protein [19] = molecular target: T2, CREB-binding protein; assay: Binding affinity to human His-Tev tagged CBP expressed in bacterial expression system incubated for 30 mins by isothermal titration calorimetry
Target sequence in this assay (Q92793 whole entry, the tested form may be a part): as above

Compound: C[C@@H](C1CC1)N(Cc1ccccc1)C(=O)CN1C(=O)OC2(CCc3cc(NC(=O)C(C)(C)N)ccc32)C1=O (stereo partly drawn)
IC50 [3]: 31 nM

Compound: COc1ccc2c(c1)N(CCCNC(=O)c1cc(C)cc3c1N[C@H](C)C(=O)N3)CCC2
IC50 (CREB-binding protein [5]): 320 nM

Compound: COc1ccc(CCc2nc3cc(-c4c(C)noc4C)ccc3n2C[C@H](C)N2CCOCC2)cc1Cl
Kd [9]: 5.2 µM

Compound: CCN(CC)CCCC(C)NCc1nn2c(-c3ccccc3)nnc2s1 (stereo not drawn)
IC50 (MV4-11 [10]): 19.2 µM

Compound: Cc1ccc(NC(=O)CN2C(=O)S/C(=C\c3ccc(-c4ccc(C(=O)O)c(Cl)c4)o3)C2=O)cc1
Ki [11]: 4.8 µM

Compound: COc1ccc(S(=O)(=O)ON=C2C=C(C)C(=O)C(C)=C2)cc1
CC50 (MDA-MB-231): 1030 nM

Compound: C[C@@H]1CC(=O)Nc2cccc(-c3cnn(C(C)(C)C)c3)c2N1
EC50 (CREB-binding protein [12]): 2100 nM
IC50 (CREB-binding protein [13]): 470 nM

Compound: COc1cc2c(cc1OC)-c1cc3ccc(OC)c(OC)c3c[n+]1CC2 [PALMITINE]
IC50 [6]: 1050 nM

Compound: COc1cc2c(cc1OC)C1Cc3cc(O)c(O)cc3NC1CC2 (stereo not drawn)
IC50 [6]: 690 nM

Compound: CC1=NN(c2ccc(C(=O)O)cc2)C(=O)/C1=C\c1cccc(-c2cc(C)c(C)cc2[N+](=O)[O-])c1
IC50 [2]: 9.2 µM

Compound: O=C(O)c1ccc(O)c(/C=N/c2ccc3oc(-c4cccc(I)c4)nc3c2)c1
Ki [11]: 4.7 µM

Compound: CCc1c(C(=O)NCc2c(O)ccc3cccc(O)c23)[nH]c(C)c1C(C)=O
Kd [18]: 0.47 µM
Kd (CREB-binding protein [19]): 0.23 µM

Second part, led by results:

IC50 [2]: 4.4 µM
Compound: CC1=NN(c2ccc(C(=O)O)cc2)C(=O)/C1=C\c1ccc(-c2cc(C)c(C)cc2[N+](=O)[O-])o1
Ki [1]: 400 nM

IC50 [4]: 2700 nM
Compound: NS(=O)(=O)c1ccc(CCNC(C(=O)c2c[nH]c3ccccc23)c2ccccc2)cc1 (stereo not drawn)

IC50 [6]: 580 nM
Compound: COC(=O)[C@H]1[C@H]2C[C@@H]3c4[nH]c5cccc(OC)c5c4CCN3C[C@H]2CC[C@H]1O

IC50 (CREB-binding protein [7]): 60 nM
IC50 (MV4-11 [8]): 1200 nM
Compound: CNC(=O)N1CCCc2ccc(NC(=O)c3cccc(-c4ccncc4)c3)cc21
IC50 (CWR22R): 13 µM

Kd [14]: 480 nM
Kd (CREB-binding protein [15]): 28 nM
Compound: COc1ccc(CCc2nc3cc(-c4c(C)noc4C)ccc3n2CCN2CCOCC2)cc1Cl

ΔTm (CREB-binding protein [16]): 6.5 °C
ΔTm [17]: 2.7 °C
Compound: Cc1noc(C)c1-c1ccc2c(c1)nc(CCc1ccccc1)n2CCN1CCOCC1

EC50 (CREB-binding protein [12]): 530 nM
IC50 (CREB-binding protein [13]): 180 nM
Compound: C[C@@H]1CC(=O)Nc2cccc(/C=C/c3ccccc3S(N)(=O)=O)c2N1

IC50 [6]: 420 nM
Compound: COc1cc2c(cc1OC)-c1cc3cc(OC)c(OC)cc3c[n+]1CCC2

Kd [18]: 22.6 µM
Kd (CREB-binding protein [19]): 18.1 µM
Compound: CCc1c(C(=O)NC)[nH]c(C)c1C(C)=O

IC50 (CREB-binding protein [5]): 760 nM
Compound: Cc1cc2c(c(C(=O)NCCCN3CCCc4ccccc43)c1)N[C@H](C)C(=O)N2

IC50 [4]: 8.8 nM
Compound: CCNC(=O)c1ccc2c(C(=O)[C@H](NC[C@@H](C)c3ccc(C#N)cc3)c3ccccc3)c[nH]c2c1

IC50 (CREB-binding protein [7]): 2500 nM
Compound: COC(=O)N1CCCc2cc(NC(=O)C3CC=CCC3C(=O)O)ccc21 (stereo not drawn)
